# Assay results: US8168665B2, “Substituted 2-phenyl-benzimidazoles and their use as pharmaceuticals” (Sanofi-Aventis, priority 2006, dated 2012)
# pEC50: −log10 of the molar value.
# System: eNOS promoter
# Test: Activation of eNOS transcription (eNOS promoter-luciferase reporter, human endothelial cell line)
# Format: cell-based
# Conditions: human endothelial cell line stably transfected with eNOS promoter-luciferase construct, 18 h incubation, determined graphically; read-out: EC50 values of transcription induction ratios (TIR)
# Protocol: A) Activation of eNOS Transcription
# Activation of eNOS transcription was measured as described in detail by Li et al., “Activation of protein kinase C alpha and/or epsilon enhances transcription of the human endothelial nitric oxide synthase gene”, Mol. Pharmacol. 53 (1998) 630. Briefly, a 3.5 kB long fragment 5′ of the starting codon of the eNOS gene was cloned, sequenced and cloned in firefly luciferase expression plasmids to monitor activation of the eNOS promoter by reporter gene activity. A human endothelial cell line stable transfected and expressing this promoter-reporter construct was used for compound testing. Cells were incubated for 18 h with the compounds.
# All compounds were dissolved in sterile dimethyl sulfoxide (DMSO). A final concentration of 0.5% DMSO in complete medium was allowed. Induction of reporter gene expression in these cells was measured using a standard luciferase assay system (Promega, Cat. No. E150) according to the manufacturer's instructions. Luciferase induction in cells incubated with compounds were compared to those incubated with solvent alone. The ratio of both activities (transcription induction ratio, TIR) was plotted as a function of compound concentration. Typically, TIR values started at low concentrations at a ratio of 1, indicating no compound effect, and extended up to a maximum TIR value TIR(max) which indicates the increase of the eNOS transcription. EC50 values of transcription induction ratios as a function of compound concentration were determined graphically.
row,SMILES,pEC50
1,"Cc1ccc(-c2nc3cc(/C(N)=N/O)ccc3[nH]2)cc1 [Example 4, N-Hydroxy-2-p-tolyl-1H-benzoimidazole-5-carboxamidine]",> 6.30
2,"CCOC(=O)O/N=C(\N)c1ccc2[nH]c(-c3ccc(F)cc3)nc2c1 [Example 5, 2-(4-Fluoro-phenyl)-N-ethoxycarbonyl-oxy-1H-benzoimidazole-5-carboxamidine]",> 6.30
3,"COC(=O)O/N=C(\N)c1ccc2[nH]c(-c3ccc(F)cc3)nc2c1 [Example 6, 2-(4-Fluoro-phenyl)-N-methoxycarbonyl-oxy-1H-benzoimidazole-5-carboxamidine]",> 6.30
4,"CC(C)OC(=O)O/N=C(\N)c1ccc2[nH]c(-c3ccc(F)cc3)nc2c1 [Example 7, 2-(4-Fluoro-phenyl)-N-isopropyloxycarbonyl-oxy-1H-benzoimidazole-5-carboxamidine]",> 6.30
